Data: patent US20080275134A1, “Methods for Treatment of Retinal Degenerative Disease” (University of Washington, priority 2005, published 2008)

Legend:
LRAT = biological target: T1, LRAT (Bos taurus, UniProt Q9BGL2); assay: LRAT reaction: formation of all-trans-retinyl esters by RPE microsomes; type: biochemical, bovine; conditions: all-trans-retinol substrate
T1 construct: Purified RPE microsomes were the source of the enzymes; from tissue; host or cells: bovine retinal pigment epithelium microsomes
T1 sequence (Q9BGL2 1-230): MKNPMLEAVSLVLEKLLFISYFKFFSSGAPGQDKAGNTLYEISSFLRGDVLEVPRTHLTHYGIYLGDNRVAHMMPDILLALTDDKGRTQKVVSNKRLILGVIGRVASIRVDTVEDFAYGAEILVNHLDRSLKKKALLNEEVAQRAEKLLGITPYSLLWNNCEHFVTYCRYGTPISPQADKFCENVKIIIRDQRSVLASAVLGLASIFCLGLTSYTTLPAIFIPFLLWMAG
Procedure: To test if 11-cis-retinylamine (11-cis Ret-NH2) affects isomerization and esterification, an in vitro assay was employed. In this assay both of the all-trans-retinyl esters formed in the reaction catalyzed by LRAT and 11-cis-retinol production by isomerase were measured (6). Purified RPE microsomes were the source of the enzymes, and all-trans-retinol was the substrate. […] Inhibition of isomerization by Ret-NH2 is not due to binding of CRALBP or competition with 11-cis-retinol for binding to CRALBP. […] An increased concentration of all-trans-retinol lowered the level of inhibition, as illustrated in FIG. 2B. […] Dixon's and Lineweaver-Burk plots in the standard assay conditions yielded Ki=0.1 μM for Ret-NH2 when all-trans-retinol (KM=0.3 μM) was assumed to be a substrate. […] This estimated value reflects the very potent nature of the inhibition by 11-cis-Ret-NH2.
Materials—Fresh bovine eyes were obtained from a local slaughterhouse (Schenk Packing Co., Inc., Stanwood, Wash.). Preparation of bovine RPE microsomes was performed according to previously described methods (Stecher et al., J Biol Chem 274:8577-85, 1999). […]
Reaction conditions for isomerase and LRAT reaction—The isomerase reaction was performed essentially as described previously (Stecher et al., J Biol Chem 274:8577-85, 1999). […] The average values were used and the standard deviations were calculated.

CRALBP = CRALBP (Homo sapiens, UniProt P12271); assay: analysis of retinoids bound to CRALBP isolated from the reaction mixture; type: binding
CRALBP, sequence (P12271 whole entry, species assumed): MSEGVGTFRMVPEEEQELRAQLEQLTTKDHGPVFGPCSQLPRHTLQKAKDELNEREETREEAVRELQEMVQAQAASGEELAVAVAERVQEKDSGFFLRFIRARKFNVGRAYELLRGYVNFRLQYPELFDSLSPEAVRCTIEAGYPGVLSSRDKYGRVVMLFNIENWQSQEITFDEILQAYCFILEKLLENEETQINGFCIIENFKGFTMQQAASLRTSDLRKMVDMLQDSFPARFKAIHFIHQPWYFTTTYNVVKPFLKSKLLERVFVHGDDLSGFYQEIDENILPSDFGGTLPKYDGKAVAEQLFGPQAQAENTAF

RPE65 = biological target: T2, RPE65 (Bos taurus, UniProt Q28175); assay: gel filtration of RPE proteins with anti-RPE65 immunoblot; type: binding, bovine; conditions: RPE65 found in fractions 23-34
T2 construct: RPE microsomes were solubilized with 10 mM DHPC; from tissue; host or cells: bovine RPE microsomes, DHPC extract
T2 sequence (Q28175 whole entry): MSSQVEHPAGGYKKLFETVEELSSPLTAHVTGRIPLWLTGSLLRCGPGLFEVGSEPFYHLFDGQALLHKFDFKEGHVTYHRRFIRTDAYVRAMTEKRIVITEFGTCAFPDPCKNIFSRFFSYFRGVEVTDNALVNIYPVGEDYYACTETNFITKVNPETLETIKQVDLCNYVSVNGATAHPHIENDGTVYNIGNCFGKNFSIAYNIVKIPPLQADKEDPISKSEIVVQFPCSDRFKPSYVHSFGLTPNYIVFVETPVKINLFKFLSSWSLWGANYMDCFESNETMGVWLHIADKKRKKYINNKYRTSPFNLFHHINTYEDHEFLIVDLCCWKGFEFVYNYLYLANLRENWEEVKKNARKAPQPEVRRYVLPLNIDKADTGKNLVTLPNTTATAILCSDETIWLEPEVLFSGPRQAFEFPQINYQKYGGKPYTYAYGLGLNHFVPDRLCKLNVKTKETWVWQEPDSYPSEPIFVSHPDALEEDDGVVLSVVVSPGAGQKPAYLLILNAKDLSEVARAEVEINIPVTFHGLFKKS
Procedure: The specificity of Ret-NH2 was further tested by biochemical assays. […] When the RPE microsomes were solubilized with DHPC, the isomerase activity decreased only slightly. Then [^3H]-Ret-NH2 was added to the RPE extract and loaded on a gel filtration column. Proteins were fractionated and eluted between fractions 18 and 60 (FIG. 3A), while the radioactivity was eluted in fractions 36-38. RPE65 was identified by immunoblotting in fractions 23-34 (FIG. 3B). The most abundant proteins in this fraction were identified by mass spectrometry and include glucose phosphate isomerase, D-glyceraldehyde-3-phosphate dehydrogenase, phosphoglycerate mutase, triose phosphate isomerase, enolase, annexin V, calbindin 2, and LRAT. Identification of less abundant proteins is in progress.
RPE microsomes were solubilized with 10 mM DHPC, incubated with 11,12-di[^3H]-all-trans-Ret-NH2 (1 μM), and loaded on a Superdex 200 column equilibrated with Tris/HCl buffer, pH 7.5, containing 4 mM DHPC. Proteins were eluted with a constant flow rate of 0.4 ml/min. The protein and radioactivity levels of 0.4 ml fractions were examined by SDS-PAGE and scintillation counting (A), and immunoblot with anti-RPE65 and anti-LRAT antibodies (B). The star indicates the fraction associated with maximum radioactivity.

[1] = HPLC and mass spectrometry analysis of liver samples of treated mice; type: in vivo, mouse
From the text: Next, the RA oxidation pathway was investigated. […] In addition to secretion, Ret-NH2 might be degraded first by deamination to all-trans-retinol/retinal, which was seen to increase in Ret-NH2 treated cells. […] These observations explain the long-lasting effect of RetNH2, as the amide is stored and hydrolyzed back to the free amine.

[2] = observation of mice for systemic toxicity after oral gavage; type: in vivo; conditions: single doses 0.5 to 100 mg/kg

| Compound | formation of all-trans-retinyl esters (LRAT activity) (LRAT) | binding to CRALBP (CRALBP) | binding to RPE65 (RPE65) | metabolite found in liver [1] | symptoms of systemic toxicity such as weight loss or gastrointestinal disorder [2] |
| --- | --- | --- | --- | --- | --- |
| CC1=C(/C=C/C(C)=C/C=C/C(C)=C/CN)C(C)(C)CCC1 [Ret-NH2, Retinylamine] | does not inhibit | does not bind | does not bind | amidated to N-retinylpalmitamide |  |
| CC1=C(/C=C/C(C)=C/C=C/C(C)=C/CN)C(C)(C)CCC1 [all-trans-Ret-NH2, all-trans-retinylamine] |  |  |  |  | did not exhibit symptoms of systemic toxicity |
